# Source: patent US20200222474A1, “COMPOSITIONS AND METHODS FOR INCREASING PHYTOCHEMICAL BIOAVAILABLITY AND BIOACTIVITY” (North Carolina State University, priority 2017, published 2020)
# System: L. acidophilus NCFM
# Assay: RNA-seq transcriptional analysis of L. acidophilus NCFM growing on plant glycosides
# Type: cell-based, Lactobacillus acidophilus
# [1] = gene LBA0282 (Hypothetical protein)
# [2] = gene LBA0327 (Replication protein)
# [3] = gene LBA0328 (Hypothetical protein)
# [4] = gene LBA0330 (Hypothetical protein)
# [5] = gene LBA0457 (Hypothetical protein)
# [6] = gene LBA0485 (Hypothetical protein)
# [7] = gene LBA0486 (Hypothetical protein)
# [8] = gene LBA0487 (Hypothetical protein.)
# [9] = gene LBA0492 (Hypothetical protein)
# [10] = gene LBA0541 (Cadmium-transporting ATPase)
# [11] = gene LBA0542 (Putative heavy-metal-transporting alpase)
# [12] = gene LBA0543 (Hypothetical protein)
# [13] = gene LBA0544 (Transcriptional regulator)
# [14] = gene LBA0555 (Myosin-crossreactive antigen)
# [15] = gene LBA0564 (HAD family hydrolase)
# [16] = gene LBA0574 (ABC multi drug exporter)
# [17] = gene LBA0575 (ABC multi drug exporter)
# [18] = gene LBA0604 (Immunity protein)
# [19] = gene LBA0605 (Putative hydrolase)
# [20] = gene LBA0608 (Hypothetical protein)
# [21] = gene LBA0631 (Hypothetical protein)
# [22] = gene LBA0649 (Myosin-crossreactive antigen)
# [23] = gene LBA0728 (Hypothetical protein LBA0728)
# [24] = gene LBA1025 (Aldo/keto reductase family oxidoreductase)
# [25] = gene LBA1026 (Aldo/keto reduetase family oxidoreductase)
# [26] = gene LBA1206 (Hypothetical protein)
# [27] = gene LBA1401 (Peroxidase (Npx))
# [28] = gene LBA1435 (Hypothetical protein)
# [29] = gene LBA1455 (Putative surface layer protein)
# [30] = gene LBA1469 (UDP-glucose 4-epimerase)
# [31] = gene LBA1656 (Hypothetical protein)
# [32] = gene LBA1675 (Hypothetical protein)
# [33] = gene LBA1676 (ATP-dependent helicase)
# [34] = gene LBA1683 (Putative magnesium-transporting atpase)
# [35] = gene LBA1704 (N-Acetylmuramic acid-6-phosphate etherase)
# [36] = gene LBA1740 (Hypothetical protein)
# [37] = gene LBA1752 (Hypothetical protein)
# [38] = gene LBA1769 (Hypothetical protein)
# [39] = gene LBA1793 (Hypothetical protein)
# [40] = gene LBA1869 (Beta-phosphoglueomutase)
# [41] = gene LBA1895 (Hypothetical protein)
# [42] = nTPM on plant glycoside relative to glucose, mid-exponential phase
structure (smiles),measurement,setting,value
O=c1ccc2cc(O[C@@H]3O[C@H](CO)[C@@H](O)[C@H](O)[C@H]3O)c(O)cc2o1 [Esculin],Log2 differential normalized TPM ratio compared to glucose,[1],2.1
same,Log2 differential normalized TPM ratio compared to lactose,[1],1.4
same,Transcripts per million (rpm),[1],92.4 rpm
same,Log2 differential normalized TPM ratio compared to glucose,[2],2.4
same,Log2 differential normalized TPM ratio compared to lactose,[2],2.1
same,Transcripts per million (rpm),[2],43.4 rpm
same,Log2 differential normalized TPM ratio compared to glucose,[3],1.9
same,Log2 differential normalized TPM ratio compared to lactose,[3],2
same,Transcripts per million (rpm),[3],55.9 rpm
same,Log2 differential normalized TPM ratio compared to glucose,[4],3.3
same,Log2 differential normalized TPM ratio compared to lactose,[4],2.9
same,Transcripts per million (rpm),[4],211.2 rpm
same,Log2 differential normalized TPM ratio compared to glucose,[5],2.1
same,Log2 differential normalized TPM ratio compared to lactose,[5],1.1
same,Transcripts per million (rpm),[5],2243.1 rpm
same,Log2 differential normalized TPM ratio compared to glucose,[6],2
same,Log2 differential normalized TPM ratio compared to lactose,[6],−0.4
same,Transcripts per million (rpm),[6],868.4 rpm
same,Log2 differential normalized TPM ratio compared to glucose,[7],2.3
same,Log2 differential normalized TPM ratio compared to lactose,[7],−0.5
same,Transcripts per million (rpm),[7],1210.2 rpm
same,Log2 differential normalized TPM ratio compared to glucose,[8],1
same,Log2 differential normalized TPM ratio compared to lactose,[8],−0.3
same,Transcripts per million (rpm),[8],69.1 rpm
same,Log2 differential normalized TPM ratio compared to glucose,[9],3.7
same,Log2 differential normalized TPM ratio compared to lactose,[9],1.2
same,Transcripts per million (rpm),[9],108.4 rpm
same,Log2 differential normalized TPM ratio compared to glucose,[10],1.9
same,Log2 differential normalized TPM ratio compared to lactose,[10],−0.3
same,Transcripts per million (rpm),[10],138.8 rpm
same,Log2 differential normalized TPM ratio compared to glucose,[11],1.9
same,Log2 differential normalized TPM ratio compared to lactose,[11],−0.3
same,Transcripts per million (rpm),[11],337.4 rpm
same,Log2 differential normalized TPM ratio compared to glucose,[12],2
same,Log2 differential normalized TPM ratio compared to lactose,[12],−0.4
same,Transcripts per million (rpm),[12],278.7 rpm
same,Log2 differential normalized TPM ratio compared to glucose,[13],1.6
same,Log2 differential normalized TPM ratio compared to lactose,[13],−0.3
same,Transcripts per million (rpm),[13],342.2 rpm
same,Log2 differential normalized TPM ratio compared to glucose,[14],2
same,Log2 differential normalized TPM ratio compared to lactose,[14],0.1
same,Transcripts per million (rpm),[14],186.9 rpm
same,Log2 differential normalized TPM ratio compared to glucose,[15],1.4
same,Log2 differential normalized TPM ratio compared to lactose,[15],0.9
same,Transcripts per million (rpm),[15],2.8 rpm
same,Log2 differential normalized TPM ratio compared to glucose,[16],2.4
same,Log2 differential normalized TPM ratio compared to lactose,[16],2.1
same,Transcripts per million (rpm),[16],490.6 rpm
same,Log2 differential normalized TPM ratio compared to glucose,[17],2.2
same,Log2 differential normalized TPM ratio compared to lactose,[17],2
same,Transcripts per million (rpm),[17],381 rpm
same,Log2 differential normalized TPM ratio compared to glucose,[18],−0.3
same,Log2 differential normalized TPM ratio compared to lactose,[18],−0.8
same,Transcripts per million (rpm),[18],12.5 rpm
same,Log2 differential normalized TPM ratio compared to glucose,[19],2.4
same,Log2 differential normalized TPM ratio compared to lactose,[19],1.4
same,Transcripts per million (rpm),[19],15.5 rpm
same,Log2 differential normalized TPM ratio compared to glucose,[20],2.3
same,Log2 differential normalized TPM ratio compared to lactose,[20],1.2
same,Transcripts per million (rpm),[20],183.9 rpm
same,Log2 differential normalized TPM ratio compared to glucose,[21],2.9
same,Log2 differential normalized TPM ratio compared to lactose,[21],−0.2
same,Transcripts per million (rpm),[21],9527.2 rpm
same,Log2 differential normalized TPM ratio compared to glucose,[22],1.9
same,Log2 differential normalized TPM ratio compared to lactose,[22],1.2
same,Transcripts per million (rpm),[22],154.8 rpm
same,Log2 differential normalized TPM ratio compared to glucose,[23],4.8
same,Log2 differential normalized TPM ratio compared to lactose,[23],3
same,Transcripts per million (rpm),[23],70.6 rpm
same,Log2 differential normalized TPM ratio compared to glucose,gene LBA0861 (Polyferredoxin),2
same,Log2 differential normalized TPM ratio compared to lactose,gene LBA0861 (Polyferredoxin),1.5
same,Transcripts per million (rpm),gene LBA0861 (Polyferredoxin),785.8 rpm
same,Log2 differential normalized TPM ratio compared to glucose,gene LBA1023 (Oxidoreductase),2.3
same,Log2 differential normalized TPM ratio compared to lactose,gene LBA1023 (Oxidoreductase),2
same,Transcripts per million (rpm),gene LBA1023 (Oxidoreductase),911.4 rpm
same,Log2 differential normalized TPM ratio compared to glucose,[24],2.7
same,Log2 differential normalized TPM ratio compared to lactose,[24],2.7
same,Transcripts per million (rpm),[24],210.8 rpm
same,Log2 differential normalized TPM ratio compared to glucose,[25],2.3
same,Log2 differential normalized TPM ratio compared to lactose,[25],1.9
same,Transcripts per million (rpm),[25],162.5 rpm
same,Log2 differential normalized TPM ratio compared to glucose,gene LBA1027 (Oxidoreductase),2.1
same,Log2 differential normalized TPM ratio compared to lactose,gene LBA1027 (Oxidoreductase),0.6
same,Transcripts per million (rpm),gene LBA1027 (Oxidoreductase),2680.9 rpm
same,Log2 differential normalized TPM ratio compared to glucose,[26],2.2
same,Log2 differential normalized TPM ratio compared to lactose,[26],1
same,Transcripts per million (rpm),[26],636.7 rpm
same,Log2 differential normalized TPM ratio compared to glucose,[27],3.1
same,Log2 differential normalized TPM ratio compared to lactose,[27],1
same,Transcripts per million (rpm),[27],609.8 rpm
same,Log2 differential normalized TPM ratio compared to glucose,[28],5
same,Log2 differential normalized TPM ratio compared to lactose,[28],1.3
same,Transcripts per million (rpm),[28],142.3 rpm
same,Log2 differential normalized TPM ratio compared to glucose,[29],0.7
same,Log2 differential normalized TPM ratio compared to lactose,[29],−0.9
same,Transcripts per million (rpm),[29],28.7 rpm
same,Log2 differential normalized TPM ratio compared to glucose,[30],2.1
same,Log2 differential normalized TPM ratio compared to lactose,[30],−2.9
same,Transcripts per million (rpm),[30],385 rpm
same,Log2 differential normalized TPM ratio compared to glucose,[31],1.2
same,Log2 differential normalized TPM ratio compared to lactose,[31],0.6
same,Transcripts per million (rpm),[31],48.5 rpm
same,Log2 differential normalized TPM ratio compared to glucose,[32],2.2
same,Log2 differential normalized TPM ratio compared to lactose,[32],0.8
same,Transcripts per million (rpm),[32],1975.8 rpm
same,Log2 differential normalized TPM ratio compared to glucose,[33],2
same,Log2 differential normalized TPM ratio compared to lactose,[33],0.8
same,Transcripts per million (rpm),[33],1361.3 rpm
same,Log2 differential normalized TPM ratio compared to glucose,[34],0.3
same,Log2 differential normalized TPM ratio compared to lactose,[34],0.5
same,Transcripts per million (rpm),[34],20.5 rpm
same,Log2 differential normalized TPM ratio compared to glucose,[35],1.6
same,Log2 differential normalized TPM ratio compared to lactose,[35],0.9
same,Transcripts per million (rpm),[35],21.2 rpm
same,Log2 differential normalized TPM ratio compared to glucose,[36],2.4
same,Log2 differential normalized TPM ratio compared to lactose,[36],1.6
same,Transcripts per million (rpm),[36],95.9 rpm
same,Log2 differential normalized TPM ratio compared to glucose,[37],2.3
same,Log2 differential normalized TPM ratio compared to lactose,[37],1.4
same,Transcripts per million (rpm),[37],42.9 rpm
same,Log2 differential normalized TPM ratio compared to glucose,[38],1.9
same,Log2 differential normalized TPM ratio compared to lactose,[38],0
same,Transcripts per million (rpm),[38],6023.9 rpm
same,Log2 differential normalized TPM ratio compared to glucose,[39],0.7
same,Log2 differential normalized TPM ratio compared to lactose,[39],−2.1
same,Transcripts per million (rpm),[39],28.5 rpm
same,Log2 differential normalized TPM ratio compared to glucose,gene LBA1796 (ABC exporter),1.9
same,Log2 differential normalized TPM ratio compared to lactose,gene LBA1796 (ABC exporter),−0.6
same,Transcripts per million (rpm),gene LBA1796 (ABC exporter),35.2 rpm
same,Log2 differential normalized TPM ratio compared to glucose,[40],4.2
same,Log2 differential normalized TPM ratio compared to lactose,[40],1.8
same,Transcripts per million (rpm),[40],156.4 rpm
same,Log2 differential normalized TPM ratio compared to glucose,[41],1.4
same,Log2 differential normalized TPM ratio compared to lactose,[41],1.2
same,Transcripts per million (rpm),[41],74.5 rpm
same,"Log2 Ratio vs Glc, LBA0225 Phospho-β-glucosidase (GH1)",[42],−0.2
same,"Log2 Ratio vs Glc, LBA0227 PTS EIIC",[42],0.8
same,"Log2 Ratio vs Glc, LBA0228 Transcriptional regulator",[42],0.9
same,"Log2 Ratio vs Glc, LBA0466 Phosphoenolpyruvate carboxykinase (ATP)",[42],2
same,"Log2 Ratio vs Glc, LBA0491 PTS EIIC",[42],3.4
same,"Log2 Ratio vs Glc, LBA0492 Hypothetical protein",[42],3.7
same,"Log2 Ratio vs Glc, LBA0555 Myosin-cross-reactive antigen/Fatty acid hydratase",[42],2
same,"Log2 Ratio vs Glc, LBA0606 PTS EIIBC",[42],2.8
same,"Log2 Ratio vs Glc, LBA0631 Hypothetical protein",[42],2.9
same,"Log2 Ratio vs Glc, LBA0724 Transcriptional regulator (antiterminator)",[42],5.5
same,"Log2 Ratio vs Glc, LBA0725 PTS EIICBA",[42],9.8
same,"Log2 Ratio vs Glc, LBA0726 Phospho-β-glucosidase (GH1)",[42],6.9
same,"Log2 Ratio vs Glc, LBA0728 Hypothetical protein",[42],4.8
same,"Log2 Ratio vs Glc, LBA0876 PTS EIIC",[42],2.9
same,"Log2 Ratio vs Glc, LBA0877 PTS EIIA",[42],3
same,"Log2 Ratio vs Glc, LBA1401 Peroxidase (Npx)",[42],3.1
same,"Log2 Ratio vs Glc, LBA1411 Fumarate reductase flavoprotein subunit",[42],1.7
same,"Log2 Ratio vs Glc, LBA1433 Dihydroxyacetone kinase",[42],3.7
same,"Log2 Ratio vs Glc, LBA1434 Dihydroxyacetone kinase",[42],4.5
same,"Log2 Ratio vs Glc, LBA1435 Hypothetical protein",[42],5
same,"Log2 Ratio vs Glc, LBA1436 Glycerol uptake facilitator protein",[42],4.9
same,"Log2 Ratio vs Glc, LBA1632 NAD-dependent aldehyde dehydrogenase",[42],3.3
same,"Log2 Ratio vs Glc, LBA1684 PTS EIIA",[42],2.9
same,"Log2 Ratio vs Glc, LBA1689 Maltose-6′-phosphate glucosidase (GH4)",[42],1.8
same,"Log2 Ratio vs Glc, LBA1701 Melibiose operon regulatory protein",[42],4.9
same,"Log2 Ratio vs Glc, LBA1709 Mucus binding protein precursor",[42],3.6
same,"Log2 Ratio vs Glc, LBA1797 Hypothetical protein",[42],2.6
same,"Log2 Ratio vs Glc, LBA1812 α-Glucosidase II (GH31)",[42],2.8
same,"Log2 Ratio vs Glc, LBA1869 β-Phosphoglucomutase",[42],4.2
same,"Log2 Ratio vs Glc, LBA1871 Neopullulanase (GH13)",[42],2.1
same,"Log2 Ratio vs Glc, LBA1873 Acetate kinase",[42],0.8
same,"Log2 Ratio vs Glc, LBA1974 Pyruvate oxidase",[42],3.6
